Measured values reported in US20190002492A1, “DERIVATIVES OF ALLOPR[…] OF EPIALLOPR[…] USES THEREOF FOR TREATING A NEUROPATHOLOGICAL CONDITION” (UNIVERSITE DE STRASBOURG, priority 2011, published 2019).
Entries after “also recorded” stand apart in the source; their conditions may differ.

Assays:
[1] = tested on: type A GABA channel receptors (GABAa-R); assay: Whole-cell patch-clamp, effect on GABA-induced ionic current; assay type: cell-based, human; details: 0.25 μM compound, GABA 10 μM in the recording pipette, whole cell patch-clamp
Method: The studies were conducted using an electrophysiological approach. The activity of the cells was recorded using the patch-clamp technique in its so-called whole cell configuration. The mediums used for the recordings have the following composition (in mM): NaCl ([…]), KCl (2), CaCl2 (1), MgCl2 (2), HEPES (10) for the medium bathing the cells and NaCl (132), KCl (2), CaCl2 (1), MgCl2 (2), TEA (15), HEPES (10) for the recording pipette, the pH was adjusted in both cases to 7.4 with NaOH. The GABA 10 μM was added into the recording pipette.
After producing a “gigaseal” (Planar patch clamp) between the cellular membrane and the tip of a pipette with an electrical resistance comprised between 4 and 7 MO, the ionic currents were measured using a patch-clamp amplifier (Axopatch B200, Axon Instruments, CA). The acquisition of the signal (acquisition frequency of 10 kHz) was done using an interface card (Digidata 1322A, Axon Instruments, CA) and the pClamp 8 software (Axons Instruments, CA).
The allopregnanolone and the BR053, BR338, BR297 and BR351 derivatives were solubilized in pure ethanol before being diluted in the medium to the desired concentration. The dilution factor was at least equal to 2×10^4, which makes the final concentration of ethanol in the recording solution remain below […] (a concentration not affecting the activity of the GABAa receptor).
Depending on the experiments, the allopregnanolone or the BR053, BR338, BR297 or BR351 derivatives, at the concentration of 0.25 μM, were either added in the recording pipette at the same time as the GABA, or applied to the cell by perfusion.
The application was done by gravity through a multi-path perfusion system made up of glass tubes each having an inner diameter of 1 mm. The selected path was placed across from the recorded cell at approximately 100 μm. The solution was changed by calibrated rotation of the tubes using a stepping motor thus placing the new selected path across from the cell. Synchronously with that rotation, the solenoid valve controlling the flow of the selected path was also opened and the preceding one closed.

[2] = tested on: human neuroblastoma cells; assay: Whole-cell patch-clamp without GABA in the recording pipette (non-GABAergic effects); assay type: cell-based; details: GABA not added in the recording pipette
Text: The present Invention relates to derivatives of allopregnanolone or of epipregnanolone that primarily and clearly create a cellular effect that is completely independent of the GABAa receptors. In fact, electrophysiological experiments conducted on human neuroblastoma cells using a Patch-Clamp technique, in a Patch-Clamp whole cell configuration, made it possible to see that when the GABA is not in the pipette, i.e., not introduced, or when the GABAa receptors are not activated, said derivatives were capable of inducing a specific cellular activity.
These experiments were carried out under the same recording conditions as the electrophysiological studies described above (A5), with the exception of the GABA, which was not added into the recording pipette.

[3] = tested on: SH-SY5Y human neuroblastomas; assay: MTT assay of cell viability and density: effect on cell proliferation; assay type: cell-based; parameters: key to Effect on cell proliferation (neural proliferative effect): −: no effect; +: low effect; ++: high effect; +++: very high effect; details: SH-SY5Y cultures
Method: (§1) The cellular model used to carry out the in vitro experiments is a line of human neuroblastomas called line SH-SY5Y.
(§2) The human neuroblastoma is a cultivated at 37° C. in a humidity saturated atmosphere, under 5% CO2 in a culture medium formed by DMEM with an added 10% (v/v) fetal calf serum, 5% (v/v) horse serum, 2 mM glutamax and 1% (v/v) of the penicillin/streptomycin mixture.
The cellular viability and the density (or number of SH-SY5Y cells/cm^2) were determined using the MTT reduction assay. The MTT technique is a colorimetric test that measures the reduction of the tetrazolium salt (3-[4,5-dimethylthiazol-2-yl]-2,5-diphenyl tetrazolium bromide) in formazan by the succinate dehydrogenase present in the mitochondria of the living cells. The formazan forms blue crystals. Thus, after solubilization of the crystals, the measurement of the absorbance at 595 nm makes it possible to obtain absorbency values directly proportional to the number of viable cells and the cell density in the culture boxes.
The effects of derivatives BR053, BR338, BR297 and BR351 on cell proliferation were evaluated by comparing the number of viable cells and the cell density in the control culture boxes, treated only with the culture medium described in paragraph A1 above, and the culture boxes exposed to the culture medium with the added BR053, BR338, BR297 or BR351 derivatives.

[4] = tested on: SH-SY5Y human neuroblastomas; assay: Neuroprotection against cell death caused by oxidizing stress (H2O2), MTT readout; assay type: cell-based; parameters: key to Neuroprotective effect against cell death caused by oxidizing stress: −: no effect; +: low effect; ++: high effect; +++: very high effect; details: H2O2 1 mM; for Neuroprotective effect against cell death caused by oxidizing stress: SH-SY5Y cultures, 24 or 48 hours, MTT; for Protection of human neuroblastomas from cell death caused by H2O2 (in words): SH-SY5Y
Method: as §1, §2
The human neuroblastomas were incubated with the culture medium alone or containing the chief inducing agent of oxidizing stress, hydrogen peroxide (H2O2), at various concentrations in order to determine the concentrations of H2O2 and the incubation times causing the death of a significant percentage of the cells. The neuroprotective properties of the BR053, BR338, BR297 and BR351 derivatives were determined by pretreating the SH-SY5Y cells with the culture medium alone or respectively containing the BR053, BR338, BR297 or BR351 derivative. After pretreatment, each of these categories of cells was integrated for 24 hours or 48 hours with the following solutions: (i) culture medium; (ii) culture medium containing only the BR053, BR338, BR297 or BR351 derivative; (iii) culture medium containing only H2O2 at a concentration of 1 mM, which causes a high percentage of cell death; (iv) culture medium containing both H2O2 (1 mM) and one of the BR053, BR338, BR297 or BR351 derivatives.
10 μl of a stock solution of tetrazolium, abbreviated MTT, at 3.6 mM was added in each well and the incubation continued in darkness for 5 h at 37° C. After cell lysis, spectrophotometer measurements at 595 nm were carried out to determine the survival and cell density under each of the conditions described above.

CC(=O)[C@H]1CCC2C3CC[C@H]4C[C@@H](O)CC[C@]4(C)C3CC(=O)[C@@]21C (stereo partly drawn) [BR053]
Effect on the type A GABA receptor channel or GABAa-R [1]: negative allosteric action; also recorded: Negative allosteric effect
Induction of cellular activity without GABA (non-GABAergic effect) [2]: capable of inducing cellular activity
Effect on cell proliferation (neural proliferative effect) [3]: +
Effect on the proliferation of human neuroblastomas (in words) [3]: low effectiveness
Neuroprotective effect against cell death caused by oxidizing stress [4]: +++
Protection of human neuroblastomas from cell death caused by H2O2 (in words) [4]: capable of protecting human neuroblastomas from the cell death

C=CCO[C@H]1CC[C@]2(C)C3CC[C@@]4(C)C(CC[C@@H]4C(C)=O)C3CC[C@H]2C1 (stereo partly drawn) [BR297]
Effect on the type A GABA receptor channel or GABAa-R [1]: only partially mimics the positive allosteric effect; also recorded: Partial positive allosteric effect
Induction of cellular activity without GABA (non-GABAergic effect) [2]: capable of inducing cellular activity
Effect on cell proliferation (neural proliferative effect) [3]: −
Effect on the proliferation of human neuroblastomas (in words) [3]: no effect
Neuroprotective effect against cell death caused by oxidizing stress [4]: ++
Protection of human neuroblastomas from cell death caused by H2O2 (in words) [4]: capable of protecting human neuroblastomas from the cell death
